Laboratory results reported in patent US12195427B2, “MASP-2 inhibitors and methods of use” (priority 2018, dated 2025).
Where a name gives a salt, the structure may show the parent alone.

Target: MASP-2 CCP2-SP (Homo sapiens (Human), UniProt O00187)
Test: MASP-2 co-crystallization, X-ray crystallography and structure analysis (H-bonds, van der Waals contacts);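 on Ligand-pharmacophore element distance, pharmacophore element C2: distance from averaged pharmacophore element to bound ligand; missing value means element absent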;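 on Ligand-pharmacophore element distance, pharmacophore element C3: distance from averaged pharmacophore element to bound ligand; missing value means element absent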;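 on Ligand-pharmacophore element distance, pharmacophore element C4: distance from averaged pharmacophore element to bound ligand; missing value means element absent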;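 on Ligand-pharmacophore element distance, pharmacophore element C5: distance from averaged pharmacophore element to bound ligand; missing value means element absent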
Set-up: van der Waals contact distance, MASP-2 HIS 483 atom CD2 / van der Waals contact distance, MASP-2 HIS 483 atom NE2 / van der Waals contact distance, SER 654 C to compound atom / van der Waals contact distance, SER 654 O to compound atom / van der Waals contact distance, TRP 655 C to compound atom / van der Waals contact distance, MASP-2 GLY 528 atom CA / van der Waals contact distance TRP 655 atom CZ3 / van der Waals contact distance TRP 655 atom N / van der Waals contact distance TRP 655 atom CE3 / van der Waals contact distance GLY 656 atom C / van der Waals contact distance GLY 656 atom CA / van der Waals contact distance GLY 656 atom O / van der Waals contact distance, MASP-2 TYR 607 atom CD1 / van der Waals contact distance, MASP-2 PRO 606 atom O / d(C3,CA1) / d(CA1,N1)2 / d(H4,O1) / d(H4,O2) / d(O1,O2) / d(CA1,O2) / d(CA6,O1) / d(CA6,O2) / d(CA1,C5) / d(O2,H3) / d(N2,C2) / d(CA5,N2) / d(N2,C4) / d(N2,C6) / d(N2,CA3) / d(N2,O3) / d(O4,H2): unit not given beside the values
Conditions: for Ligand-pharmacophore element distance, pharmacophore element C2 / Ligand-pharmacophore element distance, pharmacophore element C3 / Ligand-pharmacophore element distance, pharmacophore element C4 / Ligand-pharmacophore element distance, pharmacophore element C5 / Ligand-pharmacophore element distance, pharmacophore element C6 / Ligand-pharmacophore element distance, pharmacophore element C7 / Ligand-pharmacophore element distance, pharmacophore element CA1 / Ligand-pharmacophore element distance, pharmacophore element CA2 / Ligand-pharmacophore element distance, pharmacophore element CA3 / Ligand-pharmacophore element distance, pharmacophore element CA4 / Ligand-pharmacophore element distance, pharmacophore element CA5 / Ligand-pharmacophore element distance, pharmacophore element CA6: Table A4-1; for Pharmacophore torsion angle a(O1, O2, N2, CA2): Table A7-2
Description: This example illustrates the preparation of recombinant MASP-2 protein, based on UniProt O00187, human mannan-binding lectin serine protease 2. Expression constructs for human MASP-2 CCP2-SP and CCP2-SP-6HIS were generated for recombinant expression in E. coli cells.
Typically, crystallization hits were obtained by screening against […] 96-well crystallization reagent kits (GRAS6, GRAS2, Hampton Research; MORPHEUS, Molecular Dimensions; Wizard 1&2 Cryo, Rigaku Reagents) and crystal growth was inspected by optical microscopy. Crystals were used directly or further optimized for X-ray diffraction. Crystals were captured with cryogenic loops and dipped into liquid nitrogen directly or cryoprotected with a 20% glycerol in crystallization formulation before flash-cooling in liquid nitrogen.
Thereafter crystals are transferred once or twice for soaking within the crystallization solution containing the MASP-2 inhibitor.
Crystals were diffracted with synchrotron X-rays of […] and X-ray diffraction datasets were collected at beamlines SSRL BL9-2, BL14-1, BL12-2 as well as ALS sector 5 using Dectris Pilatus and Eiger detectors. Structures were determined by molecular replacement using portions of the structure 1Q3X as search models and partially refined with Buster 2.10.2 or Refmac 5.8. […] When multiple ligand poses were observed, for instance arising from multiple molecules in the asymmetric unit or refined dual poses within the same molecule, only one pose was selected and analyzed.
LigPlot+ calls these ‘nonbonded contacts’ or ‘hydrophobic contacts’. Despite the name, there are atom pairings that include possible H-bonds. Thus, in some instances, the Table A2 also contains H-bond interactions.

[1] = Table A5-1 pharmacophore: distance between elements, S2/S1 region
[2] = Table A5-2 pharmacophore distance, S3/S4 region
[3] = Table A7-1, between pharmacophore elements of the bound compound
[4] = between pharmacophore elements of the bound compound

Chain of MASP-2 CCP2-SP (O00187 445-686): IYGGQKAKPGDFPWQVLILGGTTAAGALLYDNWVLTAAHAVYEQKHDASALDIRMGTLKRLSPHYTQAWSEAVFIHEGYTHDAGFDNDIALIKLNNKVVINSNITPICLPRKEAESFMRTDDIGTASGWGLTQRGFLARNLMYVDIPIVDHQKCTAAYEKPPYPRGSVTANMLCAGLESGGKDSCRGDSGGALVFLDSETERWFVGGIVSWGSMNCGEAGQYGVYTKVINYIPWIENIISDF
Chain of MASP-2 CCP2-SP (O00187 364-432 partner): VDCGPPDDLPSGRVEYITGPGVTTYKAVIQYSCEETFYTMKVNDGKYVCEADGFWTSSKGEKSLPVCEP

Cc1nc(N)ccc1CNC(=O)[C@H](C)NC(=O)[C@H]1C[C@@H](c2ccccc2)CCN1 [compound 1253, (2R,4S)—N—((S)-1-(((6-Amino-2-methylpyridin-3-yl)methyl)amino)-1-oxopropan-2-yl)-4-phenylpiperidine-2-carboxamide Dihydrochloride]
H-bond distance to MASP-2 ASP 627 atom OD2 (Table A1 (H-Bonds), ASP 627 OD2): 3.33 | H-bond distance to MASP-2 GLY 656 atom N (Table A1 (H-Bonds), GLY 656 N): 3.23 | H-bond distance to MASP-2 GLY 656 atom O (Table A1 (H-Bonds), GLY 656 O): 2.83 | H-bond distance to MASP-2 SER 628 atom O (Table A1 (H-Bonds), SER 628 O): 3.12 | H-bond distance to MASP-2 SER 654 atom O (Table A1 (H-Bonds), SER 654 O): 2.99 | H-bond distance to MASP-2 SER 657 atom O (Table A1 (H-Bonds), SER 657 O): 2.85 | van der Waals contact distance, MASP-2 HIS 483 atom CD2 (Table A2-1): 3.74 | van der Waals contact distance, MASP-2 HIS 483 atom NE2 (Table A2-1): 3.66 | van der Waals contact distance, MASP-2 PHE 529 atom CE2 (Table A2-3): 3.77 | van der Waals contact distance, MASP-2 amino acid atom to compound atom (Table A2-5: TYR 607 (CE1, CE2, OH), PRO 608 (CD, CG), SER 611 (CA)): 3.73 | van der Waals contact distance, MASP-2 amino acid atom to compound atom (Table A2-7: SER 628 (CB, O, OG)): 3.58 | van der Waals contact distance, VAL 653 CG1 to compound atom (Table A2-11): 3.31 | van der Waals contact distance, TRP 655 CA to compound atom (Table A2-12): 3.41 | van der Waals contact distance TRP 655 atom CE3 (Table A2-13, MASP-2 TRP 655 CE3, compound atom in line below): 3.61 | van der Waals contact distance TRP 655 atom CZ3 (Table A2-13, MASP-2 TRP 655 CZ3): 3.71 | Ligand-pharmacophore element distance, pharmacophore element C2: 0.28 | Ligand-pharmacophore element distance, pharmacophore element C3: 0.07 | Ligand-pharmacophore element distance, pharmacophore element C4: 0 | Ligand-pharmacophore element distance, pharmacophore element C5: 0 | Ligand-pharmacophore element distance, pharmacophore element C6: 0 | Ligand-pharmacophore element distance, pharmacophore element C7: 0 | Ligand-pharmacophore element distance, pharmacophore element CA1: 0.59 | Ligand-pharmacophore element distance, pharmacophore element CA2: 0.23 | Ligand-pharmacophore element distance, pharmacophore element CA3: 0 | Ligand-pharmacophore element distance, pharmacophore element CA4: 0 | Ligand-pharmacophore element distance, pharmacophore element CA5: 0 | Ligand-pharmacophore element distance, pharmacophore element CA6: 0 | d(C3,CA1) [1]: 2.87 | d(CA1,N1)2 [1]: 1.37 | d(CA1,O1) [1]: 4.36 | d(CA1,O2) [1]: 3.83 | d(H4,O1) [1]: 4.38 | d(H4,O2) [1]: 3.69 | d(O1,O2) [1]: 3.39 | d(N2,C2) [2]: 1.46 | d(N2,CA2) [2]: 5.74 | d(O2,H3) [2]: 2.04 | d(O2,N2) [2]: 2.70 | a(C3, CA1, O1) (Table A6-1 pharmacophore angle): 149.95 | a(CA1, O1, O2) (Table A6-1 pharmacophore angle): 105.84 | a(O1, O2, H4) (Table A6-1 pharmacophore angle): 131.28 | a(N1, CA1, O1) b) (Table A6-1 pharmacophore angle, Methyl-amino-pyridine compounds): 174.19 | a(O1, O2, H3) (Table A6-2 pharmacophore angle): 134.57 | a(O1, O2, N2) (Table A6-2 pharmacophore angle): 140.99 | a(O2, N2, C2) (Table A6-2 pharmacophore angle): 130.77 | a(O2, N2, CA2) (Table A6-2 pharmacophore angle): 155.92 | Pharmacophore torsion angle a(C3, CA1, O1, H4) [3]: 26.20 | Pharmacophore torsion angle a(H4, O1, O2, H3) [3]: 115.64 | Pharmacophore torsion angle a(H4, O1, O2, N2) [3]: 140.24 | Pharmacophore torsion angle a(N1, CA1, O1, H4) [3]: 3.75 | Pharmacophore torsion angle a(O1, H4, O2, CA1) [3]: −82.09 | Pharmacophore torsion angle a(O1, O2, N2, C2) [3]: 120.69 | Pharmacophore torsion angle a(O1, O2, N2, CA2) [4]: 126.24

CC(NC(=O)C1CC(Cc2ccccc2)CN1)C(=O)NCc1cnc2c(c1)c(Cl)cn2C.Cl.Cl (centres unmarked) [1450_B]
Ligand-pharmacophore element distance, pharmacophore element C2: 0 | Ligand-pharmacophore element distance, pharmacophore element C3: 0 | Ligand-pharmacophore element distance, pharmacophore element C4: 0 | Ligand-pharmacophore element distance, pharmacophore element C5: 1.67 | Ligand-pharmacophore element distance, pharmacophore element C6: 0 | Ligand-pharmacophore element distance, pharmacophore element C7: 1.3 | Ligand-pharmacophore element distance, pharmacophore element CA1: 0.94 | Ligand-pharmacophore element distance, pharmacophore element CA2: 1.24 | Ligand-pharmacophore element distance, pharmacophore element CA3: 0 | Ligand-pharmacophore element distance, pharmacophore element CA4: 0 | Ligand-pharmacophore element distance, pharmacophore element CA5: 0 | Ligand-pharmacophore element distance, pharmacophore element CA6: 0 | d(CA1,C5) [1]: 3.41 | d(CA1,O1) [1]: 5.49 | d(CA1,O2) [1]: 4.57 | d(CA1,O4) [1]: 1.74 | d(H4,O1) [1]: 3.14 | d(H4,O2) [1]: 3.46 | d(O1,O2) [1]: 3.83 | d(N2,CA2) [2]: 6.07 | d(O2,H3) [2]: 2.32 | d(O2,N2) [2]: 2.67 | a(C5, CA1, O1) (Table A6-1 pharmacophore angle): 150.20 | a(CA1, O1, O2) (Table A6-1 pharmacophore angle): 98.92 | a(O1, CA1, C7) (Table A6-1 pharmacophore angle): 139.92 | a(O1, CA1, O4) (Table A6-1 pharmacophore angle): 66.73 | a(O1, O2, H4) (Table A6-1 pharmacophore angle): 109.15 | a(O1, O2, H3) (Table A6-2 pharmacophore angle): 123.50 | a(O1, O2, N2) (Table A6-2 pharmacophore angle): 138.89 | a(O2, N2, CA2) (Table A6-2 pharmacophore angle): 155.81 | Pharmacophore torsion angle a(C5, CA1, O1, H4) [3]: 13.21 | Pharmacophore torsion angle a(C7, CA1, O1, H4) [3]: −150.35 | Pharmacophore torsion angle a(H4, O1, O2, H3) [3]: −176.95 | Pharmacophore torsion angle a(H4, O1, O2, N2) [3]: 177.59 | Pharmacophore torsion angle a(O1, H4, O2, CA1) [3]: −91.88 | Pharmacophore torsion angle a(O1, O2, N2, CA2) [4]: 137.59
